Experimental data: patent publication US8278345B2, “Inhibitors of glutaminyl cyclase” (Probiodrug AG, priority 2006, dated 2012)
Where two headings read alike, the source gives them in different places.

Molecular target: hQC (Homo sapiens, UniProt Q16769)
Assay: Inhibitor assay for glutaminyl cyclase activity (fluorometric, H-Gln-βNA / H-Gln-AMC)
Type: biochemical
Outline: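 Ki values came from fitting progress curves to a competitive inhibition model; rapid screens used 4 mM inhibitor with substrate at KM. QC activity was read at 30 °C via auxiliary pyroglutamyl aminopeptidase releasing βNA (0.2 mM H-Gln-βNA, 0.2 M Tris pH 8.0, 20 mM EDTA) or AMC (0.05 M Tris pH 8.0, 5 mM EDTA).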

[1] = compound from preparative synthesis, purified, read-out: IC50 hQC

hQC, sequence (Q16769 29-361): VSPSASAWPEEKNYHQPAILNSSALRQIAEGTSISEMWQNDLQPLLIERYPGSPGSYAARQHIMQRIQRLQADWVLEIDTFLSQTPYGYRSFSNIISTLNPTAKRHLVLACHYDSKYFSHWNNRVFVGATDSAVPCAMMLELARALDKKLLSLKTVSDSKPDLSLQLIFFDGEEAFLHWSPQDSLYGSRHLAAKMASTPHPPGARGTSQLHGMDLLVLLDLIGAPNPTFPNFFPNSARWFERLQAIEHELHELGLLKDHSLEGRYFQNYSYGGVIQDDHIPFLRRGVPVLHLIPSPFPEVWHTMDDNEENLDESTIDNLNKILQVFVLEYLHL

| Compound | IC50 (read-out: IC50) [nM] | IC50 [1] [nM] |
| --- | --- | --- |
| CCCCCC1=C(O)C(=O)N(CCCn2ccnc2)C1c1ccncc1 (centres unmarked) [Compound 209, 3-Hydroxy-1-(3-imidazol-1-yl-propyl)-4-pentyl-5-pyridin-4-yl-1,5-dihydro-pyrrol-2-one] | 40 |  |
| CCCCCC1=C(O)C(=O)N(CCCn2ccnc2)C1c1cccs1 (centres unmarked) [Compound 210, 3-Hydroxy-1-(3-imidazol-1-yl-propyl)-4-pentyl-5-thiophen-2-yl-1,5-dihydro-pyrrol-2-one] | 40 | 588 |
| CCCCCC1=C(O)C(=O)N(CCCn2ccnc2)C1CO (centres unmarked) [Compound 211, 3-Hydroxy-5-hydroxymethyl-1-(3-imidazol-1-yl-propyl)-4-pentyl-1,5-dihydro-pyrrol-2-one] | 400 |  |
| CCCCCC1=C(O)C(=O)N(CCCn2ccnc2)C1C1CC1 (centres unmarked) [Compound 212, 5-Cyclopropyl-3-hydroxy-1-(3-imidazol-1-yl-propyl)-4-pentyl-1,5-dihydro-pyrrol-2-one] | 400 |  |
| CCCCCC1=C(O)C(=O)N(CCCn2ccnc2)C1c1ccco1 (centres unmarked) [Compound 213, 5-Furan-2-yl-3-hydroxy-1-(3-imidazol-1-yl-propyl)-4-pentyl-1,5-dihydro-pyrrol-2-one] | 40 | 1310 |
| CCCCCC1=C(O)C(=O)N(CCCn2ccnc2)C1CCCC (centres unmarked) [Compound 214, 5-Butyl-3-hydroxy-1-(3-imidazol-1-yl-propyl)-4-pentyl-1,5-dihydro-pyrrol-2-one] | 400 |  |
| CCCCCC1=C(O)C(=O)N(CCCn2ccnc2)C1CC (centres unmarked) [Compound 215, 5-Ethyl-3-hydroxy-1-(3-imidazol-1-yl-propyl)-4-pentyl-1,5-dihydro-pyrrol-2-one] | 1300 |  |
| CCCCCC1=C(O)C(=O)N(CCCn2ccnc2)C1c1cccc(Cl)c1 (centres unmarked) [Compound 216, 5-(3-Chloro-phenyl)-3-hydroxy-1-(3-imidazol-1-yl-propyl)-4-pentyl-1,5-dihydro-pyrrol-2-one] | 40 | 236 |
| CCCCCC1=C(O)C(=O)N(CCCn2ccnc2)C1c1ccccc1F (centres unmarked) [Compound 217, 5-(2-Fluoro-phenyl)-3-hydroxy-1-(3-imidazol-1-yl-propyl)-4-pentyl-1,5-dihydro-pyrrol-2-one] | 40 | 1540 |
| CCCCCC1=C(O)C(=O)N(CCCn2ccnc2)C1c1ccc(O)cc1 (centres unmarked) [Compound 218, 3-Hydroxy-5-(4-hydroxy-phenyl)-1-(3-imidazol-1-yl-propyl)-4-pentyl-1,5-dihydro-pyrrol-2-one] | 40 | 613 |
| CCCCCC1=C(O)C(=O)N(CCCn2ccnc2)C1c1cccc(O)c1 (centres unmarked) [Compound 219, 3-Hydroxy-5-(3-hydroxy-phenyl)-1-(3-imidazol-1-yl-propyl)-4-pentyl-1,5-dihydro-pyrrol-2-one] | 40 | 698 |
| CCC1=C(O)C(=O)N(CCCn2ccnc2)C1c1cc(Cl)cc(Cl)c1O (centres unmarked) [Compound 220, 5-(3,5-Dichloro-2-hydroxy-phenyl)-4-ethyl-3-hydroxy-1-(3-imidazol-1-yl-propyl)-1,5-dihydro-pyrrol-2-one] | 2200 |  |
| CCC1=C(O)C(=O)N(CCCn2ccnc2)C1c1ccc(C)cc1 (centres unmarked) [Compound 221, 4-Ethyl-3-hydroxy-1-(3-imidazol-1-yl-propyl)-5-p-tolyl-1,5-dihydro-pyrrol-2-one] | 400 |  |
| CCC/C=C/C1C(CC)=C(O)C(=O)N1CCCn1ccnc1 (centres unmarked) [Compound 222, 4-Ethyl-3-hydroxy-1-(3-imidazol-1-yl-propyl)-5-(pent-1-enyl)-1,5-dihydro-pyrrol-2-one] | 3100 |  |
| CCCC1C(CC)=C(O)C(=O)N1CCCn1ccnc1 (centres unmarked) [Compound 223, 4-Ethyl-3-hydroxy-1-(3-imidazol-1-yl-propyl)-5-propyl-1,5-dihydro-pyrrol-2-one] | 2200 |  |
| CCC1=C(O)C(=O)N(CCCn2ccnc2)C1c1cc[nH]n1 (centres unmarked) [Compound 224, 4-Ethyl-3-hydroxy-1-(3-imidazol-1-yl-propyl)-5-(1H-pyrazol-3-yl)-1,5-dihydro-pyrrol-2-one] | 1300 |  |
| CCC1=C(O)C(=O)N(CCCn2ccnc2)C1C(O)CO (centres unmarked) [Compound 225, 5-(1,2-Dihydroxy-ethyl)-4-ethyl-3-hydroxy-1-(3-imidazol-1-yl-propyl)-1,5-dihydro-pyrrol-2-one] | 40 |  |
| CCC1=C(O)C(=O)N(CCCn2ccnc2)C1/C=C/C(C)C (centres unmarked) [Compound 226, 4-Ethyl-3-hydroxy-1-(3-imidazol-1-yl-propyl)-5-(3-methyl-but-1-enyl)-1,5-dihydro-pyrrol-2-one] | 3100 |  |
| CCC1=C(O)C(=O)N(CCCn2ccnc2)C1c1ccc(C)o1 (centres unmarked) [Compound 227, 4-Ethyl-3-hydroxy-1-(3-imidazol-1-yl-propyl)-5-(5-methyl-furan-2-yl)-1,5-dihydro-pyrrol-2-one] | 2200 |  |
| CCC1=C(O)C(=O)N(CCCn2ccnc2)C1c1ccc2[nH]ccc2c1 (centres unmarked) [Compound 228, 4-Ethyl-3-hydroxy-1-(3-imidazol-1-yl-propyl)-5-(1H-indol-5-yl)-1,5-dihydro-pyrrol-2-one] | 40 |  |
| CCC1=C(O)C(=O)N(CCCn2ccnc2)C1c1ccc(OC)cc1 (centres unmarked) [Compound 229, 4-Ethyl-3-hydroxy-1-(3-imidazol-1-yl-propyl)-5-(4-methoxy-phenyl)-1,5-dihydro-pyrrol-2-one] | 40 |  |

| Compound | IC50 (read-out: IC50) [nM] | IC50 [1] [nM] |
| --- | --- | --- |
| CCC1=C(O)C(=O)N(CCCn2ccnc2)C1c1ccccc1O (centres unmarked) [Compound 230, 4-Ethyl-3-hydroxy-5-(2-hydroxy-phenyl)-1-(3-imidazol-1-yl-propyl)-1,5-dihydro-pyrrol-2-one] | 40 |  |
| CCC1=C(O)C(=O)N(CCCn2ccnc2)C1c1ccc(C)c(C)c1 (centres unmarked) [Compound 231, 5-(3,4-Dimethyl-phenyl)-4-ethyl-3-hydroxy-1-(3-imidazol-1-yl-propyl)-1,5-dihydro-pyrrol-2-one] | 400 |  |
| CCCCCC1C(CC)=C(O)C(=O)N1CCCn1ccnc1 (centres unmarked) [Compound 232, 4-Ethyl-3-hydroxy-1-(3-imidazol-1-yl-propyl)-5-pentyl-1,5-dihydro-pyrrol-2-one] | 40 |  |
| CCC1=C(O)C(=O)N(CCCn2ccnc2)C1C (centres unmarked) [Compound 233, 4-Ethyl-3-hydroxy-1-(3-imidazol-1-yl-propyl)-5-methyl-1,5-dihydro-pyrrol-2-one] | 2200 |  |
| CCC1=C(O)C(=O)N(CCCn2ccnc2)C1c1ccc(CO)o1 (centres unmarked) [Compound 234, 4-Ethyl-3-hydroxy-5-(5-hydroxymethyl-furan-2-yl)-1-(3-imidazol-1-yl-propyl)-1,5-dihydro-pyrrol-2-one] | 1300 |  |
| CCC1=C(O)C(=O)N(CCCn2ccnc2)C1/C=C/c1ccccc1 (centres unmarked) [Compound 235, 4-Ethyl-3-hydroxy-1-(3-imidazol-1-yl-propyl)-5-(styryl)-1,5-dihydro-pyrrol-2-one] | 5800 |  |
| CCC1=C(O)C(=O)N(CCCn2ccnc2)C1c1ccccc1 (centres unmarked) [Compound 236, 4-Ethyl-3-hydroxy-1-(3-imidazol-1-yl-propyl)-5-phenyl-1,5-dihydro-pyrrol-2-one] | 1300 |  |
| CCC1=C(O)C(=O)N(CCCn2ccnc2)C1C1CCC=CO1 (centres unmarked) [Compound 237, 5-(3,4-Dihydro-2H-pyran-2-yl)-4-ethyl-3-hydroxy-1-(3-imidazol-1-yl-propyl)-1,5-dihydro-pyrrol-2-one] | 400 |  |
| CCC1=C(O)C(=O)N(CCCn2ccnc2)C1C1=CCCCC1 (centres unmarked) [Compound 238, 5-Cyclohex-1-enyl-4-ethyl-3-hydroxy-1-(3-imidazol-1-yl-propyl)-1,5-dihydro-pyrrol-2-one] | 40 |  |
| CCC1=C(O)C(=O)N(CCCn2ccnc2)C1c1c[nH]c2cc(C)ccc12 (centres unmarked) [Compound 239, 4-Ethyl-3-hydroxy-1-(3-imidazol-1-yl-propyl)-5-(6-methyl-1H-indol-3-yl)-1,5-dihydro-pyrrol-2-one] | 400 |  |
| CCC1=C(O)C(=O)N(CCCn2ccnc2)C1C(F)(F)F (centres unmarked) [Compound 240, 4-Ethyl-3-hydroxy-1-(3-imidazol-1-yl-propyl)-5-trifluoromethyl-1,5-dihydro-pyrrol-2-one] | 40 |  |
| CCC1=C(O)C(=O)N(CCCn2ccnc2)C1c1c[nH]c2ccccc12 (centres unmarked) [Compound 241, 4-Ethyl-3-hydroxy-1-(3-imidazol-1-yl-propyl)-5-(1H-indol-3-yl)-1,5-dihydro-pyrrol-2-one] | 40 |  |
| CCC1=C(O)C(=O)N(CCCn2ccnc2)C1Cc1ccccc1 (centres unmarked) [Compound 242, 5-Benzyl-4-ethyl-3-hydroxy-1-(3-imidazol-1-yl-propyl)-1,5-dihydro-pyrrol-2-one] | 2200 |  |
| CCC1=C(O)C(=O)N(CCCn2ccnc2)C1c1ccccn1 (centres unmarked) [Compound 243, 4-Ethyl-3-hydroxy-1-(3-imidazol-1-yl-propyl)-5-pyridin-2-yl-1,5-dihydro-pyrrol-2-one] | 400 |  |
| CCC1=C(O)C(=O)N(CCCn2ccnc2)C1c1ccncc1 (centres unmarked) [Compound 244, 4-Ethyl-3-hydroxy-1-(3-imidazol-1-yl-propyl)-5-pyridin-4-yl-1,5-dihydro-pyrrol-2-one] | 400 |  |
| CCC1=C(O)C(=O)N(CCCn2ccnc2)C1c1cccs1 (centres unmarked) [Compound 245, 4-Ethyl-3-hydroxy-1-(3-imidazol-1-yl-propyl)-5-thiophen-2-yl-1,5-dihydro-pyrrol-2-one] | 40 |  |
| CCC1=C(O)C(=O)N(CCCn2ccnc2)C1C1CC1 (centres unmarked) [Compound 246, 5-Cyclopropyl-4-ethyl-3-hydroxy-1-(3-imidazol-1-yl-propyl)-1,5-dihydro-pyrrol-2-one] | 1300 |  |
| CCC1=C(O)C(=O)N(CCCn2ccnc2)C1c1ccco1 (centres unmarked) [Compound 247, 4-Ethyl-5-furan-2-yl-3-hydroxy-1-(3-imidazol-1-yl-propyl)-1,5-dihydro-pyrrol-2-one] | 1300 |  |
| CCCCC1C(CC)=C(O)C(=O)N1CCCn1ccnc1 (centres unmarked) [Compound 248, 5-Butyl-4-ethyl-3-hydroxy-1-(3-imidazol-1-yl-propyl)-1,5-dihydro-pyrrol-2-one] | 2200 |  |
| CCC1=C(O)C(=O)N(CCCn2ccnc2)C1c1cccc(Cl)c1 (centres unmarked) [Compound 249, 5-(3-Chloro-phenyl)-4-ethyl-3-hydroxy-1-(3-imidazol-1-yl-propyl)-1,5-dihydro-pyrrol-2-one] | 40 |  |
